Test results: US7132252B2, “Methods for detecting the interaction of compounds with cytochrome P450 using optical molecular sensors” (Invitrogen Corporation, priority 1998, dated 2006)
Several values for one entry are separate records, joined by “and”; a condition that tells them apart may be missing. Equal entries are not always repeated.

Experiments:
[1] = target: T1, CYP2C19 (Homo sapiens, UniProt P33261); assay: Kinetic properties of fluorogenic substrates with CYP 2C19; assay type: biochemical; conditions: for v (1.25 uM): turnover rate at 1.25 uM substrate; for v (1.25 uM) / v (10 uM): — = too low to quantify; for v (10 uM): turnover rate at 10 uM substrate
[2] = target: T2, CYP3A4 (Homo sapiens, UniProt P08684); assay: Kinetic properties of fluorogenic substrates with CYP 3A4; assay type: biochemical; conditions: for v (1.25 uM): turnover rate at 1.25 uM substrate; for v (10 uM): turnover rate at 10 uM substrate
Source text: For further understanding these terms in the context of this invention, attention is directed to FIG. 4 and the analysis of FIG. 4.
(§1) (respectively, MFC and MR).

[3] = target: T2, CYP3A4; assay: Fluorescence signal from enzymatic metabolism over reagent addition background, CYP3A4; assay type: biochemical; conditions: BOMR vs benzylresorufin (FIG. 8); BOMCC vs BFC (FIG. 9)
Protocol: (§2) The assays were performed in a 96-well plate at room temperature and at a volume of 100 μl/well. […] (See Table 11.) The enzyme was made up in the appropriate K+ phosphate buffer at 10× and 10 μl/well was-added to the appropriate wells. (See Table 11.) The plate was read at 3 minute intervals for 12 minutes to obtain a background fluorescence levels. Readings were briefly interrupted to allow for the addition of 10 μl of 10×NADP+ in K+ phosphate buffer to each well. (See Table 11.) The readings were resumed at 3 minute intervals for another 12 minutes. […] To permit quantitative comparison between sensors that were or would be metabolized to yield fluorescent products of differing optical properties, the signal intensity corresponding to each well was normalized by division with the initial signal intensity (wells containing enzyme and buffer). […] The later increase in signal, approximately four minutes after the second addition and at later time points, is believed to be due to the enzymatic conversion of the substrate to the product. […] [table]

[4] = target: T3, CYP2C9 (Homo sapiens, UniProt P11712); assay: Kinetic properties of fluorogenic substrates with CYP 2C9; assay type: biochemical; conditions: for v (1.25 uM): turnover rate at 1.25 uM substrate; for v (10 uM): turnover rate at 10 uM substrate
[5] = target: T4, CYP 2B6 (Homo sapiens, UniProt P20813); assay: Kinetic properties of fluorogenic substrates with CYP 2B6; assay type: biochemical; conditions: for Km: human, CYP 2B6 isozyme; for Km / v (1.25 uM) / v (10 uM) / kcat: — = too low to quantify; for v (1.25 uM): turnover rate at 1.25 uM substrate; for v (10 uM): turnover rate at 10 uM substrate
T4 sequence (P20813 1-491): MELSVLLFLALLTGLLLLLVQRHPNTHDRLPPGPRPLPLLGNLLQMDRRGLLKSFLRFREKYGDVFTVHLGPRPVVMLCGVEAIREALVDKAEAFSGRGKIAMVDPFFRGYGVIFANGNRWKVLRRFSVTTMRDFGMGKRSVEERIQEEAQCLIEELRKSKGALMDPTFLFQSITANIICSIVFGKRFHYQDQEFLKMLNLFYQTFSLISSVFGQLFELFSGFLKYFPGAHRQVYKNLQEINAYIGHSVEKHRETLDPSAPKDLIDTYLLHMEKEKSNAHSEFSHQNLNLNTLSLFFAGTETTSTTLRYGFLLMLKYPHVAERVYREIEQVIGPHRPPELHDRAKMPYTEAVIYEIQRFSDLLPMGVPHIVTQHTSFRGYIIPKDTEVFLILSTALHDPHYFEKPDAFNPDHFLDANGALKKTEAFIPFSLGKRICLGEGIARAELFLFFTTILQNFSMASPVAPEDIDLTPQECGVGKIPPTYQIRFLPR

[6] = target: T3, CYP2C9; assay: Fluorescence signal from enzymatic metabolism over reagent addition background, CYP2C9; assay type: biochemical; conditions: OOMR and BOMCC vs MFC (FIG. 11)
Protocol: as §2

[7] = target: T2, CYP3A4; assay: Kinetics of BOMR and BR toward CYP 3A4 (FIG. 4); assay type: biochemical; conditions: BOMR versus BR
Source text: Whichever of the four abstractable hydrogen atoms (designated H^1 and H^2 in this representation of BOMR) is removed in the initial reaction step, with reference to Reaction Scheme 1 of FIG. 1, the hydroxylation product will spontaneously decompose to the free resorufin dye. In addition, the benzyloxy group, attached to the carbon carrying the two hydrogens designated H^2, contributes an inductive electronic effect on that carbon, which can stabilize the radical formed during abstraction of one of the H^2 hydrogens by a cytochrome P450.
Optimization of assay conditions was, and is preferably, accomplished through statistically validated Design of Experiments methodologies, using the commercial software package “Design-Expert®” produced by Stat-Ease® Inc. The data shown in FIGS. 4 and 5 were obtained with initial optimization.

[8] = target: T5, CYP 1A2 (Homo sapiens, UniProt P05177); assay: Kinetic properties of fluorogenic substrates with CYP 1A2; assay type: biochemical
T5 sequence (P05177 1-516): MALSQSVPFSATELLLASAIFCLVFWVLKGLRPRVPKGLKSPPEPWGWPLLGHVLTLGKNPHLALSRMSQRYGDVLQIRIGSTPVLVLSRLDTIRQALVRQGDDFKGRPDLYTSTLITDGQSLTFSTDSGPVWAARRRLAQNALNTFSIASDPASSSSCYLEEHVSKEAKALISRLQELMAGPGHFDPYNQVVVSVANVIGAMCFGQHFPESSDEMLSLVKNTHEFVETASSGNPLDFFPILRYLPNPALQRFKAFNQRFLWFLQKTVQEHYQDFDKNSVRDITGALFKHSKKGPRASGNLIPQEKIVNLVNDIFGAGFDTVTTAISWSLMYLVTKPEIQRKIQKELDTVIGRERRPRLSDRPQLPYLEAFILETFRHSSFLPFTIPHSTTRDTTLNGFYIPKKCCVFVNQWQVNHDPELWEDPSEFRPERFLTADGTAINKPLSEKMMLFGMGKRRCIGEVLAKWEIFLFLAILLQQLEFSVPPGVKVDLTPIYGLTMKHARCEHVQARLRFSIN

[9] = target: T1, CYP2C19; assay: Fluorescence signal from enzymatic metabolism over reagent addition background, CYP2C19; assay type: biochemical; conditions: EOMCC vs CEC (FIG. 12)
Protocol: as §2

[10] = target: T6, CYP2D6 (Homo sapiens, UniProt P10635); assay: Fluorescence signal from enzymatic metabolism over reagent addition background, CYP2D6; assay type: biochemical; conditions: MOBFC vs AMMC (Gentest) (FIG. 10)
Protocol: as §2

[11] = target: T6, CYP2D6; assay: Kinetic properties of fluorogenic substrates with CYP 2D6; assay type: biochemical
Source text: as §1

[12] = Stability of substrate stock solution; assay type: physicochemical; conditions: 10 mM in acetonitrile, stored at 4° C. in the dark
Protocol: Substrate stock solutions were stable when stored at 4° C. in the dark. 7-Hydroxy-4trifluoromethylcoumarin dye standard was prepared at 1 mM in DMSO. […] Control wells receive the appropriate inhibition controls for each isozyme. Also, inhibitors are added to wells that contain the dye standards to permit addition of substrate and enzyme to all wells of the plate. • 2. […] 30 μl/well Enzyme/Recycling System buffer was added.

[13] = target: T2, CYP3A4; assay: in vitro; conditions: pH 8
Source text: Data for a product fluorescence standard calibration curve was generated in the following manner.

T2 sequence (P08684 whole entry): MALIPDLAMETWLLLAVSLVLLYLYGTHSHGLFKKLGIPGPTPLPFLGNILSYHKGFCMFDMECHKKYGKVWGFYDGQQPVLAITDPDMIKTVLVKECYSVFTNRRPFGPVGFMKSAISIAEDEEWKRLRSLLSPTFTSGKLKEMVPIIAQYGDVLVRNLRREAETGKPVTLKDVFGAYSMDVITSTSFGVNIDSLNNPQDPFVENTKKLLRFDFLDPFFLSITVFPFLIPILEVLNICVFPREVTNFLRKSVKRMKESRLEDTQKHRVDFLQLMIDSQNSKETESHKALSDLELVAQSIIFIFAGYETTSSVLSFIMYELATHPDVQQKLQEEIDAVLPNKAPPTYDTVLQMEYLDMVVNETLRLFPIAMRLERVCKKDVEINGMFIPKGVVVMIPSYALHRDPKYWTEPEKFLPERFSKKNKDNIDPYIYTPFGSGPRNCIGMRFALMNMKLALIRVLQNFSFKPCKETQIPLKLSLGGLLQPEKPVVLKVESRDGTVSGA
T1 sequence (P33261 whole entry): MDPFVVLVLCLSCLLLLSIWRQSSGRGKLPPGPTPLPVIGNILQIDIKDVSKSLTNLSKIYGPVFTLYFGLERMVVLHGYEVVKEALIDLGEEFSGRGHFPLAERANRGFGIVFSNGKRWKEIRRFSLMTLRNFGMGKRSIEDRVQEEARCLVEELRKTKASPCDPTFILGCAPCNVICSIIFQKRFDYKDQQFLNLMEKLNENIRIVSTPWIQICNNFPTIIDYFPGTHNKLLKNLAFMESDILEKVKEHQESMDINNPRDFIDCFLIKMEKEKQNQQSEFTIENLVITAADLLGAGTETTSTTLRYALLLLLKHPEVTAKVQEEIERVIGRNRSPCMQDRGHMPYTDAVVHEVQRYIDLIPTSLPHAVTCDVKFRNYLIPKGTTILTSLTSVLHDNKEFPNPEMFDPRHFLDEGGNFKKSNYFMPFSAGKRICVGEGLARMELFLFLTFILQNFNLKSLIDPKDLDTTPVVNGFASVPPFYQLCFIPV
T3 sequence (P11712 whole entry): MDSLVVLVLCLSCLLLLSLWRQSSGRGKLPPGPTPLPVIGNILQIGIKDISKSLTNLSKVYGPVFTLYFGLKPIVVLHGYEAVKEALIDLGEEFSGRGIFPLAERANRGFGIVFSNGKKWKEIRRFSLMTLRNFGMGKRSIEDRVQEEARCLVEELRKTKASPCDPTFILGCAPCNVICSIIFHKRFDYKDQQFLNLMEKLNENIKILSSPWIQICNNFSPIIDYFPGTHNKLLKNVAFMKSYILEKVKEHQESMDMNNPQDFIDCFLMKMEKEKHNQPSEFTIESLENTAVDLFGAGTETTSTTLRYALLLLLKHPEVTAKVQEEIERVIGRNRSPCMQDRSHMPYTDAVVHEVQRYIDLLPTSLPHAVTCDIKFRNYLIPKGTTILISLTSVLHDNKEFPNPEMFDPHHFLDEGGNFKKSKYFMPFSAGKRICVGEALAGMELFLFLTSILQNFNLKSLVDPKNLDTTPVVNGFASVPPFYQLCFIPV
T6 sequence (P10635 whole entry): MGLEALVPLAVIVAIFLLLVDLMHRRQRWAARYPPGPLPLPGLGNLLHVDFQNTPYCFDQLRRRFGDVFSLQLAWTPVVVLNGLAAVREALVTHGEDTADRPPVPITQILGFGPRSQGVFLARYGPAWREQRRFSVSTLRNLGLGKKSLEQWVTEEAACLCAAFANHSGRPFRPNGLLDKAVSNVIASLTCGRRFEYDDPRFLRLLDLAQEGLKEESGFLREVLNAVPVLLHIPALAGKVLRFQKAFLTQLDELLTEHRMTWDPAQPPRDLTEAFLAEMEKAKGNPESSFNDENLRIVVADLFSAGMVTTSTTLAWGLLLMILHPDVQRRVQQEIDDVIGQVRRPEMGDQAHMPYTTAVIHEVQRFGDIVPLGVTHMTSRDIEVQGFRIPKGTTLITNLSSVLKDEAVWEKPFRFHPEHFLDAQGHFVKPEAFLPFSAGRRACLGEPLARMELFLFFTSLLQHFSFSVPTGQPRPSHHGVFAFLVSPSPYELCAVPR

SMILES: N#Cc1cc2ccc(OCOCc3ccccc3)cc2oc1=O [BOMCC, 7-Benzyloxymethyloxy-3-cyanocoumarin]
- type of kinetics [1]: Michaelis-Menten
- v (1.25 uM) [1]: 0.16 min⁻¹
- v (10 uM) [1]: 0.68 min⁻¹
- type of kinetics [2]: sigmoidal
- kcat ([2]; ( ) = from Michaelis-Menten fit, — = too low to quantify): (10.0) min-1
- v (1.25 uM) ([2]; — = too low to quantify): 0.12 min⁻¹
- v (10 uM) ([2]; — = too low to quantify): 0.98 min⁻¹
- signal to background versus prior commercially available substrate [3]: superior signal to background
- type of kinetics [4]: Michaelis-Menten
- v (1.25 uM) ([4]; — = too low to quantify): 0.04 min⁻¹
- v (10 uM) ([4]; — = too low to quantify): 0.42 min⁻¹
- type of kinetics [5]: Michaelis-Menten
- Km [5]: 52 µM
- v (1.25 uM) [5]: 0.38 min⁻¹
- v (10 uM) [5]: 3.05 min⁻¹
- kcat [5]: 1.1 s⁻¹
- signal to background versus prior commercially available substrate [6]: superior signal to background

SMILES: O=c1ccc2nc3ccc(OCOCc4ccccc4)cc3oc-2c1 [BOMR, Benzyloxymethylresorufin]
- type of kinetics [2]: Michaelis-Menten
- v (1.25 uM) ([2]; — = too low to quantify): 0.55 min⁻¹
- v (10 uM) ([2]; — = too low to quantify): 0.88 min⁻¹
- signal to background versus prior commercially available substrate [3]: superior signal to background
- CYP 3A4 turnover rate relative to BR [7]: approximately five
- type of kinetics [5]: notMichaelis-Menten
- Km [5]: 0.73 µM
- v (1.25 uM) [5]: 0.28 min⁻¹
- v (10 uM) [5]: 0.71 min⁻¹
- kcat [5]: 0.013 s⁻¹

SMILES: CCOCOc1ccc2cc(C#N)c(=O)oc2c1 [EOMCC]
- type of kinetics [1]: Michaelis-Menten
- v (1.25 uM) [1]: 0.34 min⁻¹
- v (10 uM) [1]: 2.22 min⁻¹
- type of kinetics [8]: Michaelis-Menten
- v (1.25 uM) ([8]; turnover rate at 1.25 uM substrate): 1.77 min⁻¹
- v (10 uM) ([8]; turnover rate at 10 uM substrate): 9.95 min⁻¹
- signal to background versus prior commercially available substrate [9]: superior signal to background

SMILES: COc1ccc(COc2ccc3c(C(F)(F)F)cc(=O)oc3c2)cc1 [MOBFC]
- signal to background versus prior commercially available substrate [10]: superior signal to background
- type of kinetics [11]: Michaelis-Menten
- v (1.25 uM) ([11]; turnover rate at 1.25 uM substrate, — = too low to quantify): 0.09 min⁻¹
- v (10 uM) ([11]; turnover rate at 10 uM substrate, — = too low to quantify): 0.49 min⁻¹
- type of kinetics [2]: Michaelis-Menten
- v (1.25 uM) ([2]; — = too low to quantify): 0.0214 min⁻¹ and 0.02 min⁻¹
- v (10 uM) ([2]; — = too low to quantify): 0.3453 min⁻¹ and 0.35 min⁻¹
- stability of substrate stock solutions [12]: stable
- type of kinetics [4]: Michaelis-Menten
- v (1.25 uM) ([4]; — = too low to quantify): 0.02 min⁻¹
- v (10 uM) ([4]; — = too low to quantify): 0.188 min⁻¹ and 0.19 min⁻¹
- kcat ([4]; — = too low to quantify): 0.005 s⁻¹

SMILES: CCCCCCCCOCOc1ccc2nc3ccc(=O)cc-3oc2c1 [OOMR, Octyloxymethylresorufin]
- v (1.25 uM) [1]: 0.1 min⁻¹
- v (10 uM) [1]: 0.13 min⁻¹
- v (1.25 uM) ([2]; — = too low to quantify): 0.323 min⁻¹
- v (10 uM) ([2]; — = too low to quantify): 0.601 min⁻¹
- v (1.25 uM) ([4]; — = too low to quantify): 0.137 min⁻¹
- v (10 uM) ([4]; — = too low to quantify): 0.31 min⁻¹
- signal to background versus prior commercially available substrate [6]: superior signal to background

SMILES: Clc1ccc(COC(Cn2ccnc2)c2ccc(Cl)cc2Cl)c(Cl)c1 (stereo not drawn) [miconazole]
- inhibition at 1 h, 10 µM [13]: ~100%
